This note sets out measurements from patent publication US20250235437A1, “PROTEOLYSIS TARGETING CHIMERA (PROTAC) MOLECULE FOR DEGRADATION OF ENL AND CANCER THERAPY” (Baylor College of Medicine, priority 2022, published 2025).

The test system of one series is H3K79 methylation. Nature of the series: Nuclear H3K79 methylation in MV4;11 cells, 4 days. Type of series: cell-based. From the text: Applicant further investigated how compound 1 affects ENL, AF9 and other proteins of SEC in the cytoplasmic and nuclear compartments, the latter of which are more relevant to the functions of these transcription cofactors. […] Upon treatment of MV4;11 cells with these compounds for 4 days, cytoplasmic and nuclear proteins were separated and subjected to SDS-PAGE/Western blot.

Series [1] deals with Molm-13 cells. Nature of the series: Gene profiling and GSEA in Molm-13 cells. Type of series: cell-based. The settings on record: 500 nM. Here is the method:
Gene profiling was performed to find how compound 1 affects global gene transcriptome. mRNAs from the control and compound 1 (500 nM) treated Molm-13 cells were extracted, purified and sequenced. Bioinformatic analysis was performed to find differentially expressed genes between the treated and control cells, which were used for gene set enrichment analysis (GSEA). […] These clearly indicate that treatment with compound 1 recapitulated ENL knockout with similar patterns of gene expression changes.

A short description of series [2]: In vivo toxicity in C57BL/6 mice. The settings on record: 30 mg/kg/day for 13 days. The method, then: In vivo antitumor activity of compound 1 was evaluated in a commonly used mouse model of Molm-13 leukemia. First, in vivo toxicity was assessed in C57BL/6 mice.
In series [3] the test system is Kasumi-1, RPMI-8226 and U266 cells. As to conditions: read-out: EC50, proliferation; AML Kasumi-1 and myeloma RPMI-8226 and U266 cells, range over cell lines. From the text:
(§1) FIGS. 6A-6G summarize the antitumor activities of ENL-targeting compounds.

For the next series, the system named is Panc1. The settings on record: read-out: EC50, proliferation; Panc1 (pancreatic) cells.
Source text: as §1

The target in series [4] is T1, ENL YEATS-H3K27ac interaction (Homo sapiens, UniProt Q03111).
T1 sequence (Q03111 1-138 limits assumed): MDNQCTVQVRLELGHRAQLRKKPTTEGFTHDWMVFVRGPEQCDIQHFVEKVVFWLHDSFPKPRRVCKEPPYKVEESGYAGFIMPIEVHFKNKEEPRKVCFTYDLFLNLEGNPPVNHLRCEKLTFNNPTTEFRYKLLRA
The series is described as follows: ALPHA assay, inhibition of ENL YEATS-H3K27ac interaction. As to conditions: read-out: IC50, inhibition of ENL YEATS-H3K27ac interaction.

A further series addresses T2, ENL (Homo sapiens, UniProt Q03111).
T2 construct: tested whether the compounds degrade ENL and AF9 in MV4;11 leukemia cells; endogenous in cells; host or cells: MV4;11; Molm-13
T2 sequence (Q03111 1-559): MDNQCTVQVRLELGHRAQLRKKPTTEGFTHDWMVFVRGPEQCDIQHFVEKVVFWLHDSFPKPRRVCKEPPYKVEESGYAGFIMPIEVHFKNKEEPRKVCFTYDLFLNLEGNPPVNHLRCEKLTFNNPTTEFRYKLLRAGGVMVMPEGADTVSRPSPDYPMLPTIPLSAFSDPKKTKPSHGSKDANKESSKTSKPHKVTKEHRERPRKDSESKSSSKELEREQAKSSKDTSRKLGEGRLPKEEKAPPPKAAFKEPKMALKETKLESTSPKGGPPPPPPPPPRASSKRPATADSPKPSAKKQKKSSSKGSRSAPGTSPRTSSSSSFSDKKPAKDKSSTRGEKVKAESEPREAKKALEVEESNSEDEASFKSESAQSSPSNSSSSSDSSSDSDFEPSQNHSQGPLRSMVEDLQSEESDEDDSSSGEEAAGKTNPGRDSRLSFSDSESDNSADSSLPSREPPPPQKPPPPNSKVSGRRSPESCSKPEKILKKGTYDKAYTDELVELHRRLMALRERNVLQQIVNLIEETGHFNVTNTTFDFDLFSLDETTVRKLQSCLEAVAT
The series is described as follows: ENL degradation in Molm-13 cells (Western blot). Type of series: cell-based. As to conditions: Molm-13 cells (MLL1-AF9), 24 h. Here is the method:
Next, Applicant tested whether the compounds degrade ENL and AF9 in MV4;11 leukemia cells with the .MLL1-AF4 oncogene. Upon compound treatment for 24 h, the cells were washed, lysed, and the lysates subjected to SDS-PAGE (sodium dodecyl sulphate-polyacrylamide gel electrophoresis) followed by detection with Western blot.
In addition, compound 1 efficiently degraded ENL in another MLL1-r leukemia Molm-13 cells (with MLL1-AF9) with DC50 of 47 nM and Dmax of ˜88% (FIG. 3E). Moreover, significant ENL degradation can be detected in 2 h and depletion occurred within 24 h (FIG. 3F).
On the technique in general: A western blot detects proteins with antibodies after separation by electrophoresis.

In a further series the test system is HoxA11 and HoxA13. The series is described as follows: mENL-driven HoxA11 and HoxA13 expression in HEK293T cells. The class given is cell-based. More on the design: dose or concentration left out as unconfirmed. As to conditions: 24 h incubation. From the text:
Next, Applicant investigated how mENL degradation affect expression of HoxA11 and HoxA13 in this cell model.

Series [5] has as its system AF9, AFF4, cyclin-T1 and H3K79me2. Nature of the series: ChIP-qPCR, AF9, AFF4, cyclin-T1 and H3K79me2 at Myc and HoxA9 gene promoters. Type of series: cell-based. The settings on record: 500 nM. From the text: Chromatin immunoprecipitation (ChIP) followed by qPCR was used to further probe the activity of compound 1 in the gene promoters of Myc and HoxA9, two characteristic MLL1 target genes.
(In general: Quantitative PCR measures a nucleic acid by following its amplification.)

In series [6] the test system is RPMI-8226 cells. The series is described as follows: Gene profiling and GSEA in RPMI-8226 cells. As to conditions: 500 nM for 4 days. The class given is cell-based.
In series [7] the test system is RPMI-8226 cells. Nature of the series: Anti-proliferative activity, RPMI-8226 cells. The class given is cell-based.
For series [8], the system named is Molm-13 cells. The series is described as follows: Anti-proliferative activity, Molm-13 cells. Type of series: cell-based. The settings on record: Molm-13 cells, FIG. 6B.
A further series concerns Myc. The series is described as follows: Myc expression in RPMI-8226 cells. Type of series: cell-based. As to conditions: 4 days.

Where only a bound is given, the exact number is not on record here.

As usually defined, the IC50 is the concentration at which inhibition is half-maximal. The DC50 is the concentration giving 50% degradation. On to `C[C@H]1CCCN1Cc1nc2cc(NC(=O)c3ccc4c(cnn4CCCCCCCCNc4cccc5c4C(=O)N(C4CCC(=O)NC4=O)C5=O)c3)ccc2[nH]1` (some centres unmarked) [Compound 1], for which the “nuclear levels of H3K79 methylation” value in the series on H3K79 methylation is “not consistently affected”. For the same molecule, in the series on Molm-13 cells [1] (4 days, GSEA panel 1), the “normalized enrichment score (NES), gene set upregulated upon ENL knockout” value is 7.46. The “normalized enrichment score (NES), gene set downregulated upon ENL knockout” value with Molm-13 cells [1] (4 days, GSEA panel 2) is given as −4.26. In addition, the “transcription of Myc-target genes” value in the series on Molm-13 cells [1] (GSEA panel 7) is on record as “significantly downregulated”. Also, the “gene sets regulated by knockdown of MLL-AF9 or -ENL” value in the series on Molm-13 cells [1] (GSEA panels 3 and 4) is “significantly up- and down-regulated”. The “expression of HoxA9-regulated genes” value with Molm-13 cells [1] (GSEA panels 5 and 6) is listed as “reversed expression patterns”. In [2], the body weight entry is on record as “did not cause significant weight losses”; the “hematopoiesis and overt toxicities” value is reported as “did not inhibit normal hematopoiesis or cause other overt toxicities”. Besides, in [2] (blood test on day-14), the “blood cell counts vs control” value is “no significant differences in blood cell counts”. In series [3], the EC50 was in the range of 1100 to 4100 nM. In addition, in the series on Panc1, the EC50 is more than 50000 nM. Moreover, in series [4], the IC50 came out at 170 nM. Further, at ENL, half-maximal degradation (DC50) was put at 47 nM and the “Dmax, ENL” value was approximately 88%. Moreover, the “overexpression of HoxA11 and HoxA13” value in the series with HoxA11 and HoxA13 was “significantly inhibited overexpression of HoxA11 and HoxA13”. In addition, the “AF9, AFF4, cyclin-T1 and H3K79me2 at Myc and HoxA9 gene loci” value in [5] is “did not significantly lower down”. In the series on RPMI-8226 cells [6], the “expression of MYC target gene set (GSEA)” value is listed as “significantly down-regulated”. In addition, the EC50 in the series with RPMI-8226 cells [7] is 1200 ± 230 nM. Also, in the series on Molm-13 cells [8], the “time-dependent activity against cell proliferation” value is on record as “did not inhibit cell proliferation during the first 4 days”. For the same molecule, the “expression of MYC” value in the series on Myc is recorded as “dose-dependently decreased expression of MYC”.
